This note sets out measurements from US20110028507A1, “PYRIDINE DERIVATIVES AND METHODS OF USE THEREOF” (CRYSTALGENOMICS, INC., priority 2007, published 2011).

The target in one test is T1, HIF-PH2 (EGLN1) (Homo sapiens, UniProt Q9GZT9).
T1 construct: made in house; host or cells: E. coli
The experiment in a line: HIF-PH2 (PHD2) assay (fluorescence polarization method). It counts as biochemical. The settings on record: 200 nM HIF PH2 enzyme, 50 nM peptide substrate, 30° C. one hour; read-out: IC50 (HIF PH2 inhibition activity). The procedure: HIF-PH2 (EGLN1) was expressed from E. coli cells, and purified using two process: an Ni-affinity chromatography column and a size-exclusion chromatography column.
To evaluate activities of an HIF PH2 inhibitor, HIF PH2 enzyme that was first overexpressed by genetic recombination and then purified was used to perform an enzyme reaction. […] At this time, 2 mM ascorbic acid and 5 mM ketoglutarate with 100 μM FeCl2 or without FeCl2, were used together with crude enzyme. A concentration of HIF PH2 inhibitor to be tested was treated and reacted at 30° C. for one hour. After the reaction, the resulting reaction product was boiled at 95° C. for one minute to suppress the enzyme reaction.
To determine whether prolyl hydroxylation occurs in the substrate as the secondary reaction, 500 nM GST-VBC (GST-VHL-Elongin B-Elongin C) protein was added to a reaction buffer (50 mM Tris-Cl (pH8.0), 120 mM NaCl, 0.5% Nonidet P40), and a GST-VBC binding reaction was carried out at room temperature for 30 minutes.
A fluorescence polarization value of a sample that is not treated with the HIF PH2 inhibitor was used as 100% control, and the activities of the HIF PH2 inhibitor were measured as percentage of the remaining HIF PH2 enzyme activity in samples treated with a concentration of the HIF PH2 inhibitor to be tested.

The subject of a further test is EPO. Briefly: Human EPO immunoassay (ELISA of Hep3B culture media). It is filed as cell-based. The note with it: Hep3B cells, compound at 100 μM, 24-hour incubation; for EPO (mIU/ml): culture media ELISA; for fold induction at 100 µM: Homo sapiens, read-out: Fold Induction over control (EPO Induction). The procedure: Human cells derived from hepatocarcinoma (Hep3B) tissue (see, e.g., American Type Culture Collection, Manassas Va.) were grown at 37° C., 20% O2, 5% CO2 in DMEM (GIBCO)+10% FBS, 4.5 g/L D-Glucose; L-Glutamate and 110 mg/L sodium pyruvate. Ninety-six well plates were seeded with 4×10^4 HEP3B cells/well. The media was removed and replaced with DMEM+10% FBS. Compounds were added to wells at concentrations between 1 μM-100 μM for a 24-hour incubation. Cell culture media was harvested and EPO concentration was determined using a Human Erythropoietin Quantikine IVD ELISA Kit (R&D Systems®, Minneapolis, Minn.) following the manufacturer's instructions for the benchtop assay.

Where only a bound is given, the exact number is not on record here.

T1 sequence (Q9GZT9 whole entry, species assumed): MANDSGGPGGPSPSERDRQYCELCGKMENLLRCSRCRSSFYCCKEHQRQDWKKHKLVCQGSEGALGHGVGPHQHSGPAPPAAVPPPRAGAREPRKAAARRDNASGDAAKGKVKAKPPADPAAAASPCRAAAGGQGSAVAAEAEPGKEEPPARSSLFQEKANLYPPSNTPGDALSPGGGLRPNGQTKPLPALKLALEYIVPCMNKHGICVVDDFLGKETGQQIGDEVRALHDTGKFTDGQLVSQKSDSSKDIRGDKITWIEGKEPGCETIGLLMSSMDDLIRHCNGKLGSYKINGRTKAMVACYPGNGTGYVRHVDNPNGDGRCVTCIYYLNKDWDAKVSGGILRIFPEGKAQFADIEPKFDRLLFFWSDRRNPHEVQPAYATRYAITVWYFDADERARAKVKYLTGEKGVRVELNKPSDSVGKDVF

What is called IC50 is the point on the concentration scale where inhibition reaches its midpoint. On to `O=C(NCc1cccnc1)c1nc(Br)c2c(sc3ccccc32)c1O` [1-Bromo-4-hydroxy-benzo[4,5]thieno[3,2-c]pyridine-3-carboxylic acid (pyridin-3-ylmethyl)-amide], for which, on HIF-PH2 (EGLN1), the IC50 is 26 to 100 µM.
On the same count and under the same terms, under `C[C@H](NC(=O)c1ncc2ccoc2c1O)C(=O)O` [(S)-2-[(7-Hydroxy-furo[3,2-c]pyridine-6-carbonyl)-amino]-propionic acid] stands > 201 µM; under `COC(=O)CNC(=O)c1nc(Cl)c2c(ccn2S(=O)(=O)c2ccccc2)c1O` [[(1-Benzenesulfonyl-7-chloro-4-hydroxy-1H-pyrrolo[2,3-c]pyridine-5-carbonyl)-amino]-acetic acid methyl ester], < 25 µM.
Take `O=C(O)CNC(=O)c1nc(Cl)c2c(ccn2S(=O)(=O)c2ccccc2)c1O` [[(1-Benzenesulfonyl-7-chloro-4-hydroxy-1H-pyrrolo[2,3-c]pyridine-5-carbonyl)-amino]-acetic acid]: in the test on EPO, the “EPO (mIU/ml)” value was “I (I = 0-20 mIU/ml)” and the fold induction at 100 µM was < 20. Further, the 50% inhibitory concentration (IC50) at HIF-PH2 (EGLN1) is < 25 µM.
Consider `O=C(O)CNC(=O)c1nc(Br)c2c(sc3ccccc32)c1F` [[(1-Bromo-4-fluoro-benzo[4,5]thieno[3,2-c]pyridine-3-carbonyl)-amino]-acetic acid], for which, at HIF-PH2 (EGLN1), the half-maximal inhibitory concentration (IC50) was < 25 µM.
For the compound `O=C(O)CNC(=O)c1nc(Cl)c2c(sc3cc(O)ccc32)c1O` [[(1-Chloro-4,7-dihydroxy-benzo[4,5]thieno[3,2-c]pyridine-3-carbonyl)-amino]-acetic acid], in the test with EPO, the “EPO (mIU/ml)” value is recorded as “I (I = 0-20 mIU/ml)” and the fold induction at 100 µM is < 20. Moreover, the IC50 on HIF-PH2 (EGLN1) was < 25 µM.
In the same order, the values of `O=C(O)CNC(=O)c1nc(Cl)c2c(sc3ccc(O)cc32)c1O` [[(1-Chloro-4,8-dihydroxy-benzo[4,5]thieno[3,2-c]pyridine-3-carbonyl)-amino]-acetic acid] are “I (I = 0-20 mIU/ml)”, < 20 and < 25 µM.
In the same order, the values of `CC(C)Oc1ccc2c(c1)sc1c(O)c(C(=O)NCC(=O)O)nc(Cl)c12` [[(1-Chloro-4-hydroxy-7-isopropoxy-benzo[4,5]thieno[3,2-c]pyridine-3-carbonyl)-amino]-acetic acid] are “L (L = >61 mIU/ml)”, 21 to 50 and < 25 µM.
In the same order, the values of `COc1ccc2c(c1)sc1c(O)c(C(=O)NCC(=O)O)nc(Cl)c12` [[(1-Chloro-4-hydroxy-7-methoxy-benzo[4,5]thieno[3,2-c]pyridine-3-carbonyl)-amino]-acetic acid] are “I (I = 0-20 mIU/ml)”, 21 to 50 and < 25 µM.
Consider `O=C(O)CNC(=O)c1nc(Cl)c2c(sc3ccc(S(=O)(=O)Cc4ccccc4)cc32)c1O` [[(1-Chloro-4-hydroxy-8-phenylmethanesulfonyl-benzo[4,5]thieno[3,2-c]pyridine-3-carbonyl)-amino]-acetic acid], for which, at HIF-PH2 (EGLN1), the IC50 was 26 to 100 µM.
With `O=C(O)CNC(=O)c1nc(Cl)c2c(sc3ccc(C(F)(F)F)cc32)c1O` [[(1-Chloro-4-hydroxy-8-trifluoromethyl-benzo[4,5]thieno[3,2-c]pyridine-3-carbonyl)-amino]-acetic acid], in the test with EPO, the “EPO (mIU/ml)” value is reported as “J (J = 21-40 mIU/ml)” and the fold induction at 100 µM was 21 to 50. Also, on HIF-PH2 (EGLN1), the half-maximal inhibitory concentration (IC50) is < 25 µM.
As to `CCN(CC)c1ccc2sc3c(O)c(C(=O)NCC(=O)O)nc(Cl)c3c2c1` [[(1-Chloro-8-diethylamino-4-hydroxy-benzo[4,5]thieno[3,2-c]pyridine-3-carbonyl)-amino]-acetic acid], in the test on EPO, the “EPO (mIU/ml)” value is on record as “J (J = 21-40 mIU/ml)” and the fold induction at 100 µM was in the range of 21 to 50. Also, the IC50 at HIF-PH2 (EGLN1) was < 25 µM.
For `CCS(=O)(=O)c1ccc2sc3c(O)c(C(=O)NCC(=O)O)nc(Cl)c3c2c1` [[(1-Chloro-8-ethanesulfonyl-4-hydroxy-benzo[4,5]thieno[3,2-c]pyridine-3-carbonyl)-amino]-acetic acid], the half-maximal inhibitory concentration (IC50) at HIF-PH2 (EGLN1) was in the range of 26 to 100 µM.
Turning to `CCNc1ccc2sc3c(O)c(C(=O)NCC(=O)O)nc(Cl)c3c2c1` [[(1-Chloro-8-ethylamino-4-hydroxy-benzo[4,5]thieno[3,2-c]pyridine-3-carbonyl)-amino]-acetic acid], in the test with EPO, the “EPO (mIU/ml)” value is on record as “K (K = 41-60 mIU/ml)” and the fold induction at 100 µM was in the range of 51 to 70. Further, at HIF-PH2 (EGLN1), the half-inhibitory concentration (IC50) was < 25 µM.
As for `CC(C)Oc1c(C(=O)NCC(=O)O)nc(Cl)c2c1sc1ccc(O)cc12` [[(1-Chloro-8-hydroxy-4-isopropoxy-benzo[4,5]thieno[3,2-c]pyridine-3-carbonyl)-amino]-acetic acid], the IC50 on HIF-PH2 (EGLN1) was in the range of 101 to 200 µM.
Same read-out and setting: under `COc1c(C(=O)NCC(=O)O)nc(Cl)c2c1sc1ccc(O)cc12` [[(1-Chloro-8-hydroxy-4-methoxy-benzo[4,5]thieno[3,2-c]pyridine-3-carbonyl)-amino]-acetic acid] stands 101 to 200 µM.
The same measure, in the same setting: under `Nc1c(C(=O)NCC(=O)O)nc(Br)c2c1sc1ccccc12` [[(4-Amino-1-bromo-benzo[4,5]thieno[3,2-c]pyridine-3-carbonyl)-amino]-acetic acid] stands > 201 µM; under `O=C(O)CN(O)C(=O)c1ncc2c(sc3ccccc32)c1Cl` [[(4-Chloro-benzo[4,5]thieno[3,2-c]pyridine-3-carbonyl)-hydroxy-amino]-acetic acid], > 201 µM.
In the case of `Cc1nc(C(=O)NCC(=O)O)c(O)c2sc3ccccc3c12` [[(4-Hydroxy-1-methyl-benzo[4,5]thieno[3,2-c]pyridine-3-carbonyl)-amino]-acetic acid], in the test with EPO, the “EPO (mIU/ml)” value is on record as “J (J = 21-40 mIU/ml)” and the fold induction at 100 µM is > 71.
Turning to `O=C(O)CNC(=O)c1ncc2c(cnn2-c2ccccn2)c1O` [[(4-Hydroxy-1-pyridin-2-yl-1H-pyrazolo[3,4-c]pyridine-5-carbonyl)-amino]-acetic acid], in the test on EPO, the “EPO (mIU/ml)” value is listed as “I (I = 0-20 mIU/ml)” and the fold induction at 100 µM is < 20. At HIF-PH2 (EGLN1), the half-maximal inhibitory concentration (IC50) was < 25 µM.
For the compound `O=C(O)CNC(=O)c1ncc2c(oc3ccccc32)c1O` [[(4-Hydroxy-benzo[4,5]furo[3,2-c]pyridine-3-carbonyl)-amino]-acetic acid], in the test on EPO, the “EPO (mIU/ml)” value is listed as “I (I = 0-20 mIU/ml)” and the fold induction at 100 µM was < 20.
In the same order, the values of `O=C(O)CNC(=O)c1ncc2c(sc3ccccc32)c1O` [[(4-Hydroxy-benzo[4,5]thieno[3,2-c]pyridine-3-carbonyl)-amino]-acetic acid] are “I (I = 0-20 mIU/ml)” and < 20.
Turning to `O=C(O)CNC(=O)c1nc(Cl)c2[nH]ccc2c1O` [[(7-Chloro-4-hydroxy-1H-pyrrolo[2,3-c]pyridine-5-carbonyl)-amino]-acetic acid], the half-inhibitory concentration (IC50) at HIF-PH2 (EGLN1) was > 201 µM.
For `Cc1nc(C(=O)NCC(=O)O)c(O)c2sc3cc(F)ccc3c12` [[(7-Fluoro-4-hydroxy-1-methyl-benzo[4,5]thieno[3,2-c]pyridine-3-carbonyl)-amino]-acetic acid], in the test on EPO, the “EPO (mIU/ml)” value is recorded as “L (L = >61 mIU/ml)” and the fold induction at 100 µM was 21 to 50. Also, the IC50 on HIF-PH2 (EGLN1) was < 25 µM.
With `O=C(O)CNC(=O)c1ncc2c(-c3ccccc3)coc2c1O` [[(7-Hydroxy-3-phenyl-furo[3,2-c]pyridine-6-carbonyl)-amino]-acetic acid], the half-inhibitory concentration (IC50) on HIF-PH2 (EGLN1) lay within 101 to 200 µM.
`O=C(O)CNC(=O)c1ncc2ccoc2c1O` [[(7-Hydroxy-furo[3,2-c]pyridine-6-carbonyl)-amino]-acetic acid]: at HIF-PH2 (EGLN1), the IC50 is > 201 µM.
Still for that read-out and setting: in the case of `O=C(O)CNC(=O)c1nc(Cl)c2c(sc3ccc([S+]([O-])c4ccccc4)cc32)c1O` (centres unmarked) [[(8-Benzenesulfinyl-1-chloro-4-hydroxy-benzo[4,5]thieno[3,2-c]pyridine-3-carbonyl)-amino]-acetic acid] it was < 25 µM; in that of `O=C(O)CNC(=O)c1nc(Cl)c2c(sc3ccc(S(=O)(=O)c4ccccc4)cc32)c1O` [[(8-Benzenesulfonyl-1-chloro-4-hydroxy-benzo[4,5]thieno[3,2-c]pyridine-3-carbonyl)-amino]-acetic acid], < 25 µM; in that of `O=C(O)CNC(=O)c1nc(Cl)c2c(sc3ccc(NCc4ccccc4)cc32)c1O` [[(8-Benzylamino-1-chloro-4-hydroxy-benzo[4,5]thieno[3,2-c]pyridine-3-carbonyl)-amino]-acetic acid], < 25 µM.
Still for that read-out and setting: under `O=C(O)CN(O)C(=O)c1ncc2c(sc3ccccc32)c1O` [[Hydroxy-(4-hydroxy-benzo[4,5]thieno[3,2-c]pyridine-3-carbonyl)-amino]-acetic acid] stands 101 to 200 µM.
